Laboratory results taken from patent publication US12624068B2, “Exon skipping by peptide nucleic acid derivatives” (OliPass Corporation, priority 2016, dated 2026).
[C(1O2)] = modified PNA monomer acting as cytosine, C(pOq) type, 1O2; [A(6)] = modified PNA monomer acting as adenine, A(p) type, p=6; [G(6)] = modified PNA monomer acting as guanine, G(p) type, p=6; {Fethoc} = N-terminal Fethoc cap; {NH2} = C-terminal amide

What was measured:
full-length SNAP25 mRNA = assay: SNAP25 nested qPCR in PC12 cells; type: cell-based, rat
Protocol: [Cell Culture & ASO Treatment] PC12 cells grown in 60 mm culture dish containing 5 mL culture medium were treated with “SNAP-ASO 3” at 0 (negative control), 10, 100 or 1,000 zM. (2 culture dishes per ASO concentration) [RNA Extraction & cDNA Synthesis by One-step RT-PCR] Following an incubation with “SNAP-ASO 3” for 42 hours, the cells were treated 100 μg/mL cycloheximide for another 6 hours to freeze the ribosomal translation. Then total RNA was extracted from cells using “Universal RNA Extraction Kit” (Cat. Number 9767, Takara) according to the manufacturer's instructions. […] NO: 130); and SNAP-exon 14_reverse: (5'→3') […] [Nested qPCR Amplification] […] NO: 132); and SNAP-exon 8q_reverse: (5'→3') […] The qPCR reaction was followed with a Taqman probe of [(5'→3') 5,6-[…] NO: 134)] targeting the junction of exon 7 and exon 8 in order to quantify the full-length SNAP25 mRNA.

SNAP25 protein [1] = assay: SNAP25 western blot in PC12 cells; type: cell-based, rat; conditions: 100 or 1,000 zM, 48 hours or 72 hours
Protocol: “SNAP-ASO 3” was evaluated for its ability to inhibit the expression of the SNAP25 protein in PC12 cells as follows.
PC12 cells were grown in 60 mm culture dish containing 5 mL culture medium, and treated with “SNAP-ASO 3” at 0 zM (negative control), 1 zM, 10 zM, 30 zM, 100 zM, 300 zM, 1 aM, 3 aM or 10 aM for 48 hours. There were 4 culture dishes of the negative control to compensate for potential technical artifacts during the western blot analysis.
[Cell Lysis] Then the cells were subjected to lysis on ice with 200 μL 1×RIPA buffer (Cat. Number 9806, Cell Signaling Tech) supplemented with 1% SDS and 1× proteinase inhibitors cocktail (cOmplete Mini, Roche). The lysates were collected in 1.5 mL e-tube, mixed with 100 μL 5× sample buffer, and boiled for 5 min.
[Western Blot] The lysates were subjected to electrophoretic separation on a 4-15% TGX-PAGE gradient gel (Cat. Number 456-1086, Bio-Rad) and then transferred onto a 0.45 μm PVDF membrane. The membrane was probed with an anti-SNAP25 antibody (Cat. Number S9684, Sigma) and an anti-β-actin antibody (Cat. Number A3845, Sigma).
“SNAP-ASO 1” was evaluated for its ability to inhibit the SNAP25 protein expression in PC12 cells as described in “SNAP25 Example 4”, unless noted otherwise. PC12 cells were treated with “SNAP-ASO 1” at 0 (negative control), 100 or 1,000 zM either for 48 hours or for 72 hours. […]

SNAP25 protein [2] = assay: SNAP25 IHC in skin of mice after topical administration; type: in vivo, C57BL/6 mice; conditions: topical 1, 10 or 100 fM solution, twice per day Days 0 to 4
Protocol: “SNAP-ASO 1” is a 16-mer ASO fully complementary to the 3′ splice site spanning the junction of intron 6 and exon 7 in the mouse SNAP25 pre-mRNA read out from the mouse genomic DNA [accessed from NCBI Reference Sequence: NC_000068]. “SNAP-ASO 1” was evaluated for its ability to inhibit the expression of SNAP25 protein in the skin upon topical administration as follows.
[Hair Cut and Grouping] In Day 0, 8 female C57BL/6 mice (5 weeks old) were anesthetized with zoletil/rompun, and the hair in the back (ca 3 cm×4 cm) was cut with a clipper. The mice were randomly assigned into 4 groups, i.e., no ASO treatment group (negative control) and 3 treatment groups of 1 fM, 10 fM and 100 fM “SNAP-ASO 1”. (2 animals per group)
[Topical Administration] Topical solutions were prepared by serially diluting an aqueous stock solution of “SNAP-ASO 1” in 30% (v/v) aqueous ethanol supplemented with 3% (v/v) glycerin to 0, 1, 10 and 100 fM “SNAP-ASO 1”. […]
[SNAP25 IHC] Skin samples were cryo-sectioned and immunostained in series with a primary anti-SNAP25 antibody (Cat. Number ab41455, Abcam) at 1:200 dilution, with a secondary anti-IgG (Cat Number BA-1100, Vector) at 1:200 dilution, and then with Dylight 594-streptavidin (Cat Number SA-5594, Vector, CA, USA) at 1:200 dilution for red fluorescence tagging. […]

With “Fethoc-A(6)TT-TG(6)T-TA(6)C-CC(1O2)T-GG(6)G-A(6)-NH2 (ATTTGTTACCCTGGGA; all peptide nucleic acid (PNA), [A(6)] at 1, 8, 16, [G(6)] at 5, 14, [C(1O2)] at 11, 5' {Fethoc}, 3' {NH2}; peptide nucleic acid written N to C) [SNAP-ASO 1]” the “decrease of full-length SNAP25 mRNA level (qPCR)” value (“decrease” below) (full-length SNAP25 mRNA; PC12 cells, 10 zM) was roughly 50%, the “decrease” value (full-length SNAP25 mRNA; PC12 cells, 100 zM) was 40% and the “decrease” value (full-length SNAP25 mRNA; PC12 cells, 1,000 zM) was 70%. For the same substance, the “expression of the SNAP25 protein (western blot)” value (SNAP25 protein [1]) was “considerably inhibited” and the “SNAP25 protein expression in the muscle layer of skin (IHC)” value (SNAP25 protein [2]) was “gradually decreased as the dose was increased”.
